Source: US9758529B2, “Fused dihydro-4H-pyrazolo[5,1-C][1,4]oxazinyl compounds and analogs for treating CNS disorders” (Sunovion Pharmaceuticals Inc., priority 2015, dated 2017)

What follows are molecules tested on mice (assay: Neuropharmacological Assay (SmartCube)). Conditions: i.p. 15 min before behavioral test; 3 doses, most efficacious dose(s) presented.
Type: in vivo
Excerpt: Neurosci. […] As reported in Roberds, because psychiatric diseases generally result from disorders of cell-cell communication or circuitry, intact systems are useful in detecting improvement in disease-relevant endpoints. These endpoints are typically behavioral in nature, often requiring human observation and interpretation. To facilitate testing of multiple compounds for behavioral effects relevant to psychiatric disease, PsychoGenics, Inc. (Tarrytown, N.Y., “PGI”) developed SmartCube™, an automated system in which behaviors of compound-treated mice are captured by digital video and analyzed with computer algorithms. […] PGI Analytical Systems uses data from SmartCube™ to compare the behavioral signature of a test compound to a database of behavioral signatures obtained using a large set of diverse reference compounds. (The composition of the database as well as validation of the method is further described in Roberds). In this way, the neuropharmacological effects of a test compound can be predicted by similarity to major classes of compounds, such as antipsychotics, anxiolytics and antidepressants.
The SmartCube™ system produces an activity signature indicating the probability that the activity of the test compound at the administered dose matches a given class of neuropharmacological agents. (See, e.g., Roberds, FIGS. 2 and 3). The test compound is simultaneously compared against multiple classes of agents; thus, a separate probability is generated for each behavioral effect measured (e.g., anxiolytic activity, analgesic activity, etc.). In Table 2 and 2B, these probabilities are reported for each behavioral effect measured as follows:
where LOQ is the limit of quantification.
Provided compounds were dissolved in a mixture of Pharmasolve™ (N-methyl-2-pyrrolidone), polyethylene glycol and propylene glycol, and were injected i.p. 15 min. before the behavioral test. For each compound, injections were administered at 3 different doses. For each behavioral effect measured, results for the most efficacious dose(s) are presented.

| Structure (SMILES) | AD: ADHD (probability of class match) | AG: analgesic (probability of class match) | AX: anxiolytic (probability of class match) | CE: cognitive enhancer (probability of class match) | DP: anti-depressant (probability of class match) | HA: hallucinogen (probability of class match) | MS: mood stabilizer (probability of class match) | PS: anti-psychotic (probability of class match) | SD: sedative hypnotic (probability of class match) | UN: uncharacterized CNS activity (probability of class match) |
| --- | --- | --- | --- | --- | --- | --- | --- | --- | --- | --- |
| CNC[C@@H]1OCCn2nc3ccsc3c21 [Compound 68, (S)-1-(6,7-dihydro-9H-thieno[3′,2′:3,4]pyrazolo[5,1-c][1,4]oxazin-9-yl)-N-methylmethanamine] | ++ (5%≦ ++ <25%) | ++ (5%≦ ++ <25%) | ++ (5%≦ ++ <25%) | + (LOQ≦ + <5%) | ++++ (50%≦ ++++) | ++++ (50%≦ ++++) | + (LOQ≦ + <5%) | + (LOQ≦ + <5%) | ++ (5%≦ ++ <25%) | ++ (5%≦ ++ <25%) |
| CNCC1OCCn2nc3ccc(Cl)cc3c21.Cl (stereo not drawn) [Compound 5, 1-(9-chloro-3,4-dihydro-1H-[1,4]oxazino[4,3-b]indazol-1-yl)-N-methylmethanaminium chloride] | + (LOQ≦ + <5%) | ++ (5%≦ ++ <25%) | + (LOQ≦ + <5%) | + (LOQ≦ + <5%) | ++ (5%≦ ++ <25%) | + (LOQ≦ + <5%) | + (LOQ≦ + <5%) | + (LOQ≦ + <5%) | + (LOQ≦ + <5%) | + (LOQ≦ + <5%) |
| CN[C@@H](C)[C@H]1OCCn2nc3ccccc3c21 (relative stereo) [Compound 34, (+/−)-rel-(R)-1-((S)-3,4-dihydro-1H-[1,4]oxazino[4,3-b]indazol-1-yl)-N-methylethanaminium chloride] | + (LOQ≦ + <5%) | + (LOQ≦ + <5%) | ++ (5%≦ ++ <25%) | + (LOQ≦ + <5%) | + (LOQ≦ + <5%) | + (LOQ≦ + <5%) | + (LOQ≦ + <5%) | + (LOQ≦ + <5%) | + (LOQ≦ + <5%) | + (LOQ≦ + <5%) |
| c1ccc2c3n(nc2c1)CCOC3[C@@H]1CCN1 (stereo partly drawn) [Compound 64, (2S)-2-(3,4-dihydro-1H-[1,4]oxazino[4,3-b]indazol-1-yl)azetidin-1-ium chloride] | ++++ (50%≦ ++++) | ++ (5%≦ ++ <25%) | ++ (5%≦ ++ <25%) | + (LOQ≦ + <5%) | ++ (5%≦ ++ <25%) | + (LOQ≦ + <5%) | + (LOQ≦ + <5%) | + (LOQ≦ + <5%) | + (LOQ≦ + <5%) | +++ (25%≦ +++ <50%) |
| Cl.c1ccc2c3n(nc2c1)CCO[C@H]3[C@@H]1COCCN1 (racemic) [Compound 46, (+/−)—(S)-3-((S)-3,4-dihydro-1H-[1,4]oxazino[4,3-b]indazol-1-yl)morpholin-4-ium chloride] | + (LOQ≦ + <5%) | ++ (5%≦ ++ <25%) | ++ (5%≦ ++ <25%) | + (LOQ≦ + <5%) | + (LOQ≦ + <5%) | + (LOQ≦ + <5%) | + (LOQ≦ + <5%) | ++ (5%≦ ++ <25%) | ++ (5%≦ ++ <25%) | ++ (5%≦ ++ <25%) |
| NCC1OCCn2nc3ccccc3c21 (stereo not drawn) [Compound 15, (3,4-dihydro-1H-[1,4]oxazino[4,3-b]indazol-1-yl)methanamine] | ++++ (50%≦ ++++) | ++ (5%≦ ++ <25%) | + (LOQ≦ + <5%) | + (LOQ≦ + <5%) | ++ (5%≦ ++ <25%) | + (LOQ≦ + <5%) | + (LOQ≦ + <5%) | + (LOQ≦ + <5%) | + (LOQ≦ + <5%) | + (LOQ≦ + <5%) |
| CCN(C)C[C@@H]1OCCn2nc3ccccc3c21.Cl [Compound 49, N—(((S)-3,4-dihydro-1H-[1,4]oxazino[4,3-b]indazol-1-yl)methyl)-N-methylethanaminium chloride] | + (LOQ≦ + <5%) | +++ (25%≦ +++ <50%) | ++ (5%≦ ++ <25%) | ++ (5%≦ ++ <25%) | ++ (5%≦ ++ <25%) | + (LOQ≦ + <5%) | + (LOQ≦ + <5%) | + (LOQ≦ + <5%) | ++ (5%≦ ++ <25%) | + (LOQ≦ + <5%) |
| Cl.c1ccc2c3n(nc2c1)CCOC31CN2CCC1C2 (stereo not drawn) [Compound 37, 3′,4′-dihydro-4-azaspiro[bicyclo[2.2.1]heptane-2,1′-[1,4]oxazino[4,3-b]indazol]-4-ium chloride] | + (LOQ≦ + <5%) | ++ (5%≦ ++ <25%) | ++ (5%≦ ++ <25%) | ++ (5%≦ ++ <25%) | ++ (5%≦ ++ <25%) | + (LOQ≦ + <5%) | + (LOQ≦ + <5%) | ++ (5%≦ ++ <25%) | ++ (5%≦ ++ <25%) | +++ (25%≦ +++ <50%) |
| C[C@@H](N)[C@H]1OCCn2nc3ccccc3c21.Cl (relative stereo) [Compound 30, (+/−)-rel-(R)-1-((R)-3,4-dihydro-1H-[1,4]oxazino[4,3-b]indazol-1-yl) ethanaminium chloride] | ++ (5%≦ ++ <25%) | ++ (5%≦ ++ <25%) | +++ (25%≦ +++ <50%) | + (LOQ≦ + <5%) | ++ (5%≦ ++ <25%) | ++ (5%≦ ++ <25%) | + (LOQ≦ + <5%) | + (LOQ≦ + <5%) | + (LOQ≦ + <5%) | + (LOQ≦ + <5%) |

Same assay, conditions: i.p. 15 min before behavioral test; 3 doses, most efficacious dose(s) presented

| Structure (SMILES) | XG: anxiogenic (probability of class match) |
| --- | --- |
| CNC[C@@H]1OCCn2nc3ccsc3c21 [Compound 68, (S)-1-(6,7-dihydro-9H-thieno[3′,2′:3,4]pyrazolo[5,1-c][1,4]oxazin-9-yl)-N-methylmethanamine] | + (LOQ≦ + <5%) |
| CNCC1OCCn2nc3ccc(Cl)cc3c21.Cl (stereo not drawn) [Compound 5, 1-(9-chloro-3,4-dihydro-1H-[1,4]oxazino[4,3-b]indazol-1-yl)-N-methylmethanaminium chloride] | + (LOQ≦ + <5%) |
| CN[C@@H](C)[C@H]1OCCn2nc3ccccc3c21 (relative stereo) [Compound 34, (+/−)-rel-(R)-1-((S)-3,4-dihydro-1H-[1,4]oxazino[4,3-b]indazol-1-yl)-N-methylethanaminium chloride] | + (LOQ≦ + <5%) |
| c1ccc2c3n(nc2c1)CCOC3[C@@H]1CCN1 (stereo partly drawn) [Compound 64, (2S)-2-(3,4-dihydro-1H-[1,4]oxazino[4,3-b]indazol-1-yl)azetidin-1-ium chloride] | + (LOQ≦ + <5%) |
| Cl.c1ccc2c3n(nc2c1)CCO[C@H]3[C@@H]1COCCN1 (racemic) [Compound 46, (+/−)—(S)-3-((S)-3,4-dihydro-1H-[1,4]oxazino[4,3-b]indazol-1-yl)morpholin-4-ium chloride] | + (LOQ≦ + <5%) |
| NCC1OCCn2nc3ccccc3c21 (stereo not drawn) [Compound 15, (3,4-dihydro-1H-[1,4]oxazino[4,3-b]indazol-1-yl)methanamine] | + (LOQ≦ + <5%) |
| CCN(C)C[C@@H]1OCCn2nc3ccccc3c21.Cl [Compound 49, N—(((S)-3,4-dihydro-1H-[1,4]oxazino[4,3-b]indazol-1-yl)methyl)-N-methylethanaminium chloride] | + (LOQ≦ + <5%) |
| Cl.c1ccc2c3n(nc2c1)CCOC31CN2CCC1C2 (stereo not drawn) [Compound 37, 3′,4′-dihydro-4-azaspiro[bicyclo[2.2.1]heptane-2,1′-[1,4]oxazino[4,3-b]indazol]-4-ium chloride] | + (LOQ≦ + <5%) |
| C[C@@H](N)[C@H]1OCCn2nc3ccccc3c21.Cl (relative stereo) [Compound 30, (+/−)-rel-(R)-1-((R)-3,4-dihydro-1H-[1,4]oxazino[4,3-b]indazol-1-yl) ethanaminium chloride] | + (LOQ≦ + <5%) |
